The record followed here is US20260176283A1, “IONIZABLE LIPIDS WITH LINEAR HEAD GROUPS” (Beam Therapeutics Inc., priority 2023, published 2026).

SMILES strings stand for the structures.

Data set [1] in a line: LNP characterization of base editor LNP preparations (DLS diameter, PDI, encapsulation efficiency). It counts as physicochemical. How it is done:
(§1) Lipid nanoparticle components are dissolved in 100% ethanol at specified lipid component molar ratios. mRNA encoding an adenine base editor and a chemically-modified sgRNA is dissolved at a mass ratio of 1:1 in 10 mM citrate, 100 mM NaCl, pH 4.0, resulting in a concentration of NA cargo of approximately 0.22 mg/mL. LNP preparations are formulated with molar ratios of either 50% Ionizable Lipid: 38.5% Cholesterol: 1.5% PEG2000-DMG: 10% DSPC or 47.5% Ionizable Lipid: 40% Cholesterol: 2.5% PEG2000-DMG: 10% DSPC both at a total lipid to NA molar ratio of 6.
(§2) LNP preparations are formed by microfluidic mixing of the lipid and NA solutions using a Precision Nanosystems NanoAssemblr Ignite Instrument, according to the manufacturer's protocol. A 3:1 ratio of aqueous to organic solvent is maintained during mixing using differential flow rates. After mixing, LNP preparations are collected, diluted in PBS (approximately 2:1 v/v), and further buffer exchange is conducted using dialysis in PBS at 4° C. for 8 to 24 hours against a 20 kDa filter. After this initial dialysis, each individual LNP preparation is characterized via dynamic light scattering (DLS) to measure size and polydispersity. pKa of a subpopulation of LNP preparations is measured via TNS assay. After dialysis, LNP preparations are sterile filtered using 0.22 micron sterile filter and stored at 4° C. for further use. In some embodiments, LNP preparations may be concentrated using 100 kDa Amicon filters per manufacturer's protocol.
DLS—LNP preparation hydrodynamic diameter and polydispersity index (PDI) is measured using high throughput dynamic light scattering (DLS) (DynaPro plate reader II, Wyatt). LNP preparations are diluted 1×PBS to an appropriate concentration and analyzed.
Concentration of NA is determined by Qubit microRNA kit (for siRNA) or HS RNA kit (for mRNA) per manufacturer's instructions. Encapsulation efficiency is determined by measuring unlysed and lysed LNPs.

In another data set the test system is ALAS1 target site. Briefly: In vivo base editing with ABE mRNA and sgRNA targeting ALAS1. Also on record: species or system Balb/c mice. As to conditions: for Liver Editing A->G (%): 4 days after dosing; for Quadrecept Editing A->G (%): formulation ratio 50:38.5:1.5:10, quadricep muscle. How it is done: as §1, §2
Male Balb/C mice aged approximately 8-12 weeks are used in the experiments described herein. Each mouse is temporarily restrained, and LNP preparations are administered IV via tail vein injection. Age-matched mice are also used to administer vehicle (1×PBS) via tail vein injection as a control. Four to six days post-dose, tissues including liver, spleen, heart and muscle are collected (only liver and muscle (quardracept) are reported). Genomic DNA is isolated and fragmented and adapter-ligated using the Nextera DNA Flex Library Prep Kit (Illumina) using the 96-well plate Nextera indexing primers (Illumina), according to the manufacturer's instructions. Library size and concentration is confirmed by Fragment Analyzer (Agilent) and sent to Novogene for whole genome sequencing using an Illumina HiSeq.
For base editing, mRNA encoding an adenine base editor (ABE) and a guide RNA (sgRNA) targeting ALAS1 at 1:1 (mass ratio) are coencapsulated in LNP preparations as described herein. LNP preparations are administrated into Balb/c mice through tail vein injections at concentrations ranging from 0.05 to 3.0 mg/kg total RNA. At 4 days after dosing, mice are euthanized and liver, spleen and bone barrow are harvested. Base editing is determined by performing targeted deep sequencing analysis at the ALAS1 target site using extracted genomic DNA.

A short description of data set [2]: LNP preparation characterization (encapsulation efficiency, DLS size and polydispersity), barcoded screen LNPs. As to conditions: LNP 47.5% ionizable lipid: 40% cholesterol: 2.5% PEG-2000 DMG: 10% DPSC, N/P 4.5-6; for AVG PDI / AVG Z Dia (nm): DLS. The format is physicochemical. How it is done: Lipid nanoparticle components were dissolved in 100% ethanol at specified lipid component molar ratios. Nucleic acid (NA) cargo was dissolved in 10 mM citrate, 100 mM NaCl, pH 4.0, resulting in a concentration of NA cargo of approximately 0.22 mg/mL. In some embodiments, NA cargos included both a functional NA and a reporter barcode mixed at mass ratios of 1:10 to 10:1 functional NA to barcode. As described herein, a NA can be a siRNA, an anti-sense, an expressing DNA, or mRNA.
LNP preparations were prepared with 47.5% Ionizable Lipid (e.g., a compound provided herein): 40% cholesterol: 2.5% PEG-2000 DMG: 10% DPSC and an N/P ratio range of 4.5-6. LNP preparations were formed by microfluidic mixing of the lipid and NA solutions using Precision Nanosystems NanoAssemblr Spark or Benchtop series Instruments, according to the manufacturer's protocol.
A ratio of aqueous to organic solvent of approximately 2:1 or 3:1 was maintained during mixing using differential flow rates. After mixing, LNP preparations were collected, diluted in phosphate buffer saline (PBS) or Tris-buffered saline (TBS) (approximately 1:1 v/v). Further buffer exchange was conducted using dialysis in PBS or TBS at 4° C. for 4 to 24 hours against a 20 kDa filter. After this initial dialysis, each individual LNP preparation may be characterized via dynamic light scattering (DLS) to measure the size (e.g., diameter) and polydispersity. LNP preparations falling within specific diameter and polydispersity ranges were pooled, and further dialyzed against PBS or TBS at 4° C. for 1 to 4 hours against a 100 kDa dialysis cassette. After the second dialysis, LNP preparations were sterile filtered using 0.22 μm filter and stored at 4° C. for further use.

Where [3] appears, read: Table D LNPs, formulation ratio 50:38.5:1.5:10, ABE mRNA/ALAS1 sgRNA.
Setting [4] is: dose 3 MPK IV, formulation ratio 50:38.5:1.5:10, liver.
[5] abbreviates: Table C LNPs, formulation ratio 47.5:40:2.5:10, ABE mRNA/ALAS1 sgRNA.

As for `C=CCCCCC(CCCCC=C)OC(=O)CCCCCC(=O)OCC(COC(=O)CCCCCC(=O)OC(CCCCC=C)CCCCC=C)COC(=O)CCCN1CCCC1` [Compound (2)], in data set [1] (setting [3]), the “Diameter (nm)” value worked out at 98.8 nm, the “EE (%)” value came out at 98.59% and the “PDI (%)” value worked out at 9.5%. The “Liver Editing A->G (%)” value with ALAS1 target site (dose 1.5 MPK IV, formulation ratio 50:38.5:1.5:10, liver) turned out to be 79.48%. For the same molecule, in the data set on ALAS1 target site (dose 1.5 MPK IV), the “Quadrecept Editing A->G (%)” value is listed as 3.19%. For the same molecule, in data set [2], the “AVG EE(%)” value came out at 83.5%, the “AVG PDI” value is given as 0.06 and the “AVG Z Dia (nm)” value is 108.73 nm.

For the molecule `C=CCCCCCCC(CCCCCCC=C)OC(=O)CCCCC(=O)OCC(COC(=O)CCCCC(=O)OC(CCCCCCC=C)CCCCCCC=C)COC(=O)CCCN1CCCC1` [Compound (3), 1-Heptadeca-1,16-dien-9-yl6-[2-({[6-(hentadeca-1,16-dien-9-yloxy)-6-oxohexanoyl]oxy}methyl)-3-{[4-(pyrrolidin-1-yl)butanoyl]oxy}propyl]hexanedioate], in data set [1] (setting [3]), the “Diameter (nm)” value is listed as 69.8 nm, the “EE (%)” value is listed as 99.3% and the “PDI (%)” value is recorded as 11.9%. Further, in the data set with ALAS1 target site (setting [4]), the “Liver Editing A->G (%)” value stood at 69.43%. In the data set with ALAS1 target site (dose 3 MPK IV), the “Quadrecept Editing A->G (%)” value came to 3.8%. Also, in data set [2], the “AVG EE(%)” value is recorded as 85.3%, the “AVG PDI” value is listed as 0.13 and the “AVG Z Dia (nm)” value turned out to be 77.22 nm.

On to `C=CCCCCC(CCCCC=C)OC(=O)CCCCCCC(=O)OCC(COC(=O)CCCCCCC(=O)OC(CCCCC=C)CCCCC=C)COC(=O)CCCN1CCCC1` [Compound (6), 1-[2-({[8-Oxo-8-(trideca-1,12-dien-7-yloxy)octanoyl]oxy}methyl)-3-{[4-(pyrrolidin-1-yl)butanoyl]oxy}propyl]-8-trideca-1,12-dien-7-yl octanedioate], for which, in data set [1] (setting [3]), the “Diameter (nm)” value stood at 73.7 nm, the “EE (%)” value is reported as 98.07% and the “PDI (%)” value was 15.3%. Also, in the data set on ALAS1 target site (setting [4]), the “Liver Editing A->G (%)” value came to 78.46%. The “Quadrecept Editing A->G (%)” value in the data set on ALAS1 target site (dose 3 MPK IV) is listed as 1.17%. For the same molecule, in data set [2], the “AVG EE(%)” value turned out to be 78.0%, the “AVG PDI” value worked out at 0.10 and the “AVG Z Dia (nm)” value is recorded as 97.43 nm.

As to `CC/C=C\CCCC(CCC/C=C\CC)OC(=O)CCCCCCC(=O)OCC(COC(=O)CCCCCCC(=O)OC(CCC/C=C\CC)CCC/C=C\CC)COC(=O)CCCN1CCCC1` [Compound (13), 1-{2-[({8-Oxo-8-[(3Z,12Z)-pentadeca-3,12-dien-8-yloxy]octanoyl}oxy)methyl]-3-{[4-(pyrrolidin-1-yl)butanoyl]oxy}propyl} 8-(3Z,12Z)-pentadeca-3,12-dien-8-yl octanedioate], in data set [1] (setting [3]), the “Diameter (nm)” value is 79.7 nm, the “EE (%)” value stood at 96.75% and the “PDI (%)” value is on record as 27.9%. Besides, the “Quadrecept Editing A->G (%)” value in the data set on ALAS1 target site (dose 3 MPK IV) was determined as 0.37%.

For `C=CCCCC(CCCC=C)COC(=O)CCCCCCC(=O)OCC(COC(=O)CCCCCCC(=O)OCC(CCCC=C)CCCC=C)COC(=O)CCCN1CCCC1` [Compound (15), 1-(2-1[(8-oxo-8-{[2-(pent-4-en-1-yl)hept-6-en-1-yl]oxy}octanoyl)oxy]methyl}-3-{[4-(pyrrolidin-1-yl)butanoyl]oxy}propyl) 8-[2-(pent-4-en-1-yl)hept-6-en-1-yl] octanedioate], in data set [1] (setting [3]), the “Diameter (nm)” value was 96.6 nm, the “EE (%)” value is 94.81% and the “PDI (%)” value came out at 11.6%. Further, in the data set on ALAS1 target site (dose 3 MPK IV), the “Quadrecept Editing A->G (%)” value is on record as 4.05%.

`CC/C=C\CCCC(CCC/C=C\CC)OC(=O)CCCCCC(=O)OCC(COC(=O)CCCCCC(=O)OC(CCC/C=C\CC)CCC/C=C\CC)COC(=O)NCCN1CCCC1` [Compound (28), 1-{2-[({7-oxo-7-[(3Z,12Z)-pentadeca-3,12-dien-8-yloxy]heptanoyl}oxy)methyl]-3-({[2-(pyrrolidin-1-yl)ethyl]carbamoyl}oxy)propyl}7-(3Z,12Z)-pentadeca-3,12-dien-8-ylheptanedioate]: in data set [1] (setting [5]), the “Diameter (nm)” value worked out at 71.15 nm, the “EE (%)” value is on record as 98.71% and the “PDI (%)” value amounted to 11.8%. Moreover, the “Liver Editing A->G (%)” value with ALAS1 target site (dose 0.05 MPK IV, formulation ratio 47.5:40:2.5:10, liver) is 0.65%.
